The record followed here is US20250295629A1, “COMPOSITIONS AND METHODS FOR TREATING CANCERS OF THE CENTRAL NERVOUS SYSTEM (CNS), INCLUDING GLIOBLASTOMA AND CHEMORESISTANT CNS TUMORS, AND RELATED COMPOSITIONS AND METHODS FOR INHIBITING AND ELIMINATING CNS CANCER STEM CELLS” (priority 2022, published 2025).

Experiment [1] concerns GLUC2 GSC intracranial gliomas (tumor microenvironment). In words: Immunohistochemistry of tumors from the murine glioma model. Type of experiment: in vivo, mouse. Here is the method:
Gliomas were established in 3-4 month old male and female mice as described previously (3, 4, 33). GLUC2 GSC were dissociated with accutase and counted. Mice were anesthetized with 20 mg/kg avertin, a midline incision was made in the scalp, the skin retracted and a small burr hole was drilled in the skull at the following stereotactic coordinates from bregma: −lmm anteroposterior and +2 mediolateral. l×10^5 GLUC2 GSC resuspended in PBS were injected over a period of 2 minutes at a depth of 3 mm. At the end of the injection, the needle was kept in the injection site for a further 3 minutes. After needle removal, the incision was sutured and mice were placed on a heating pad until they fully recovered from anesthesia. […] All animal procedures were approved by the Stony Brook University Institutional Animal Care and Use Committee.
Lucanthone was solubilized in 10% DMSO, 40% HPCD in PBS. After confirming the presence of gliomas on day 7, mice were randomly divided to control and treatment groups, and treated with either saline or 50 mg/kg lucanthone i.p. every day from day 7 to day 20. On day 21, tumors were visualized by bioluminescent imaging, as above.
Mice were anesthetized with 20 mg/kg avertin and transcardially perfused with 30 ml PBS followed by 30 ml 4% PFA in PBS. Brains were removed and post-fixed in 4% PFA in PBS overnight. They were dehydrated for 48 hours in 30% w/v sucrose in PBS. Brains were then embedded in optimal cutting temperature compound (OCT, Tissue-Tek) and 20 μm coronal sections throughout the entire tumor were taken on a Leica cryostat (Nusslock, Germany) and collected on Superfrost plus microscope slides. To determine tumor volume, serial sections were taken from each animal and subjected to hematoxylin and eosin stain. Tumor volume was calculated as tumor area×20 μm thickness, x number of slides (34).
For immunohistochemical analysis, slides were brought to room temperature, washed 3× with 0.3% TX-100 in PBS and then blocked with 1% BSA/0.3% TX-100 in PBS for 1 hour. Slides were incubated overnight with appropriate primary antibodies (Table 1). The primary antibody was removed and slides were washed 3× 0.3% TX-100 in PBS and incubated with appropriate secondary antibodies for 1 hour. Slides were washed 3× with PBS, and counterstained with DAPI. Immunoreactivity was visualized by confocal imaging using the Leica SP8-x system, with white light and argon lasers.

Experiment [2] concerns Olig2, nestin and SOX2 in GLUC2 spheroids. Description: Stemness marker staining of spheroids. In kind it is cell-based, mouse. To be noted: 10 μM, 48 hours. Here is the method:
(§1) For immunocytochemical analysis, GLUC2, KRl 58 and GBM43 cells were plated on glass coverslips overnight. Cells were treated with medium or lucanthone for 48 hours. The medium was aspirated and cells were fixed with 4% PFA for 10 minutes. Plates were then washed 3× with 0.3% TX-100 in PBS and wells were blocked with 3% normal goat serum/0.3% TX-100 in PBS for 1 hour. Cells were stained with primary antibodies overnight (LC3, Ki67, Nestin, Olig2, SOX2, CD133, p62, Cathepsin D, yH2AX). The primary antibody was removed, and cells were again washed 3× with 0.3% TX-100 in PBS after which time cells were incubated with fluorescent secondary antibodies for an hour at room temperature. Cells were then washed 3× with PBS, counterstained with DAPI and imaged under confocal microscopy. GSC were induced to adhere to glass slides by precoating glass slides with Geltrex for an hour.
To gain mechanistic insight into how lucanthone reduces sternness, KR158 and GLUC2 GSC were cultivated to form spheroids for 10 days, then spheroids were treated with 10 μM lucanthone for 48 hours and assayed for alterations in levels of LC3 and p62. […] In addition to assessing for changes in autophagic flux, we assessed for changes in the levels of sternness markers after treatment. […] Using RT-qPCR lucanthone reduced Olig2 mRNA expression in GLUC2 spheroids by >60% (FIG. 51), with some detectable change also observed in Ki67 in these cultures.

Experiment [3] relates to yH2AX in GLUC2 and KR158 cells. In words: yH2AX staining (DNA damage marker). In kind it is cell-based, mouse. The conditions noted are these: 48 hours. How it is done:
as §1

The test system of experiment [4] is LC3-II and p62 in GBM9 and GBM43 stem-like cells. In words: Western blot of autophagy markers in patient-derived stem-like cells. The conditions noted are these: 3 uM, 24 hours. In kind it is cell-based, human. How it is done:
Immunoblotting was done as described previously (4). Briefly, cells were lysed in 50 mM Tris-HCl (pH 7.4) with 1% Nonidet P-40, 0.25% sodium deoxycholate, 150 mM NaCl, 1% SDS and 1 mM sodium orthovanadate. Proteins were denatured by boiling with treatment with BME. Proteins were run on SDS-page gels, transferred to PVDF membranes (Immobilon; Millipore). Membranes were washed with Tris-buffered saline with 0.1% Tween 20 and blocked in a 5% non-fat dry milk powder for 1 hour. Membranes were then probed for LC3 (1:1000), p62 (1:1000), Olig2 (1:1000), SOX2 (1:1000) CD44 (1:200), TMEMl 19 (1:1000) and B-Actin (1:2000; sigma Aldrich). Membranes were rinsed in TBS-T, probed with associated HRP-conjugated secondary antibodies and exposed to Pierce ECL substrate for 1 minute (Thermo Fisher Scientific) after which x-ray films were developed from membranes.

`CCN(CC)CCNc1ccc(C)c2sc3ccccc3c(=O)c12` [lucanthone]: in experiment [1] (50 mg/kg vs control), the CD31 intensity entry is given as “diminished”, the “Glut1 positivity (tumor hypoxia)” value is reported as “minimal”, the “blood vessel luminal areas” value is listed as “substantially increased” and the “blood vessel size (CD31)” value was “smaller”. Further, in experiment [1] (50 mg/kg vs control), the “blood vessel tortuosity and circularity” value was “less tortuous and more circular”; the “levels of Glut4” value is given as “not affected”. Further, in experiment [1] (50 mg/kg vs saline), the HSP60 levels entry is “Increased levels”; the Ki67 positivity entry is reported as “similar”; the “Olig2 positivity at tumor periphery and core” value is given as “striking reduction”; the SOX2 expression result is recorded as “not significantly different”. Besides, in experiment [1] (50 mg/kg vs saline), the yH2AX positivity entry was “increased”. Moreover, in experiment [1] (among treatment groups), the P2RY12 levels result is on record as “similar”. Further, the “numbers of cytotoxic T cells (CD8a+) in the center of tumors” value in experiment [1] (treated versus control mice) is “substantial increase”. Further, in experiment [2], the Olig2 intensity result is “strong reduction”, the SOX2 expression entry is recorded as “did not change” and the nestin expression entry is “did not change”. Further, the yH2AX levels result in experiment [3] (lucanthone plus TMZ compared to TMZ alone, not statistically significant) is listed as “slightly increased”. For the same molecule, in experiment [3] (single agent), the yH2AX intensity entry was “minimal effect and not”. Also, in experiment [4], the LC3-II level result is “increase” and the p62 level result is reported as “increase”.
